One assay has as its target PIK3Cβ_h (Homo sapiens (Human), UniProt P42338). In words: KINOMEscan enzyme binding assay, PIK3Cβ. As to conditions: DiscoveRx. Here is the method:
(§1) Enzyme Binding Assays (KINOMEscan®) Kinase enzyme binding affinities of compounds disclosed herein were determined using the KINOMEscan technology performed by DiscoveRx Corporation, San Diego, Calif., USA (www.kinomescan.com). Table A reports the obtained Kd values (nM), with the Kd being the inhibitor binding constant: […]

The target of another assay is MTOR_h (Homo sapiens (Human), UniProt P42345). In words: KINOMEscan enzyme binding assay, MTOR. As to conditions: DiscoveRx. The method, then:
(§2) Enzyme Binding Assays (KINOMEscan®) Kinase enzyme binding affinities of compounds disclosed herein were determined using the KINOMEscan technology performed by DiscoveRx Corporation, San Diego, Calif., USA (www.kinomescan.com).

Assay [1] concerns Akt phosphorylated at Thr308 in PC-3 cells. Kind of assay: Cellular assay: phosphorylation of Akt (Thr308) in PC-3 cells, MSD ELISA. Type of assay: cell-based. As to conditions: Homo sapiens, PC-3, 1 h, 60 min incubation with compound, read-out: IC50 pAkt_Thr308. The gist of the method:
(§3)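 PC-3 cells cultured 24 h in DMEM/10% FCS were exposed to compound for 60 min at 37° C, with 0.3% DMSO. Lysates were analysed by MSD electrochemiluminescent sandwich ELISA using phospho-Ser473 or phospho-Thr308 capture and anti-total Akt detection antibodies. IC50 was derived by nonlinear sigmoidal fitting of % inhibition over five concentrations.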
(ELISA stands for enzyme-linked immunosorbent assay.)

The target of the next assay is PIK3Cα_h (Homo sapiens (Human), UniProt P42336). Kind of assay: KINOMEscan enzyme binding assay, PIK3Cα. The settings on record: DiscoveRx. The method, then:
as §2

A further assay deals with PIK3Cδ_h (Homo sapiens (Human), UniProt O00329). In words: KINOMEscan enzyme binding assay, PIK3Cδ. The settings on record: DiscoveRx. The method, then:
as §1

A further assay deals with PIK3Cγ_h (Homo sapiens (Human), UniProt P48736). Kind of assay: KINOMEscan enzyme binding assay, PIK3Cγ. As to conditions: DiscoveRx. Here is the method:
as §2

For assay [2], the system named is Akt phosphorylated at Ser473 in PC-3 cells. Kind of assay: Cellular assay: phosphorylation of Akt (Ser473) in PC-3 cells, MSD ELISA. Format: cell-based. As to conditions: Homo sapiens, PC-3, 1 h, 60 min incubation with compound, read-out: IC50 pAkt_S473. The method, boiled down:
as §3

A word on the Kd: it is the free concentration of one partner at which half of the binding sites on the other are occupied at equilibrium, for simple one-to-one binding. In general, IC50 refers to the concentration that gives 50% inhibition.

PIK3Cγ_h, sequence (P48736 whole entry): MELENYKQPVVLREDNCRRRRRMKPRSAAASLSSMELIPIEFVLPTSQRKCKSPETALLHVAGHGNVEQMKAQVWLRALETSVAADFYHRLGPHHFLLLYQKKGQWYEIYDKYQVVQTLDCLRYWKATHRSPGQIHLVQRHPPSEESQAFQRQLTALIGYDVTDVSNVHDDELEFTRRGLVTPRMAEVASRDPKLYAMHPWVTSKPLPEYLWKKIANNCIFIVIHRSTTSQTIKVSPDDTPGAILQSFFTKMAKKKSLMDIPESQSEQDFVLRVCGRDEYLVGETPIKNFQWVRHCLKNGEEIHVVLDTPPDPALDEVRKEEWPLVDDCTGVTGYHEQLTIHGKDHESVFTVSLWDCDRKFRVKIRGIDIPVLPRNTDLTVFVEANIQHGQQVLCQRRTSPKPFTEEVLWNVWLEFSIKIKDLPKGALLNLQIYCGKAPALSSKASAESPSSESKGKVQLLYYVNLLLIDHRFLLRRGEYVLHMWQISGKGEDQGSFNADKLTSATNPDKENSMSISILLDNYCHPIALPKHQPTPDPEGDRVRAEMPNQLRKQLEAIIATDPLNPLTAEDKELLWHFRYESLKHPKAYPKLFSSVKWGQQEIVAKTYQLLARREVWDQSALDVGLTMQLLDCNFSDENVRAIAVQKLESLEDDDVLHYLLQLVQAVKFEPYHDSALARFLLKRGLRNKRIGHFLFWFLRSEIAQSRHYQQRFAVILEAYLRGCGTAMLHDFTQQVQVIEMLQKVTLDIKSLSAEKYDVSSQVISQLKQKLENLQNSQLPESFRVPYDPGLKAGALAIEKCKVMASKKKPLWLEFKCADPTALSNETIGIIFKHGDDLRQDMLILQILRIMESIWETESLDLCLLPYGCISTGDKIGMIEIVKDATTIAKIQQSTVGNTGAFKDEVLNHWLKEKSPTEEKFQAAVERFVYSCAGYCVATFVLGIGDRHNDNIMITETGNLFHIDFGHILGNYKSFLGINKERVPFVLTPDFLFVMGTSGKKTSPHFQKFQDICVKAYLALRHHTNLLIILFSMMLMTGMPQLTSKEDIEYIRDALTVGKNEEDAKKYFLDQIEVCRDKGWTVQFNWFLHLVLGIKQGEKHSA
PIK3Cβ_h, sequence (P42338 whole entry): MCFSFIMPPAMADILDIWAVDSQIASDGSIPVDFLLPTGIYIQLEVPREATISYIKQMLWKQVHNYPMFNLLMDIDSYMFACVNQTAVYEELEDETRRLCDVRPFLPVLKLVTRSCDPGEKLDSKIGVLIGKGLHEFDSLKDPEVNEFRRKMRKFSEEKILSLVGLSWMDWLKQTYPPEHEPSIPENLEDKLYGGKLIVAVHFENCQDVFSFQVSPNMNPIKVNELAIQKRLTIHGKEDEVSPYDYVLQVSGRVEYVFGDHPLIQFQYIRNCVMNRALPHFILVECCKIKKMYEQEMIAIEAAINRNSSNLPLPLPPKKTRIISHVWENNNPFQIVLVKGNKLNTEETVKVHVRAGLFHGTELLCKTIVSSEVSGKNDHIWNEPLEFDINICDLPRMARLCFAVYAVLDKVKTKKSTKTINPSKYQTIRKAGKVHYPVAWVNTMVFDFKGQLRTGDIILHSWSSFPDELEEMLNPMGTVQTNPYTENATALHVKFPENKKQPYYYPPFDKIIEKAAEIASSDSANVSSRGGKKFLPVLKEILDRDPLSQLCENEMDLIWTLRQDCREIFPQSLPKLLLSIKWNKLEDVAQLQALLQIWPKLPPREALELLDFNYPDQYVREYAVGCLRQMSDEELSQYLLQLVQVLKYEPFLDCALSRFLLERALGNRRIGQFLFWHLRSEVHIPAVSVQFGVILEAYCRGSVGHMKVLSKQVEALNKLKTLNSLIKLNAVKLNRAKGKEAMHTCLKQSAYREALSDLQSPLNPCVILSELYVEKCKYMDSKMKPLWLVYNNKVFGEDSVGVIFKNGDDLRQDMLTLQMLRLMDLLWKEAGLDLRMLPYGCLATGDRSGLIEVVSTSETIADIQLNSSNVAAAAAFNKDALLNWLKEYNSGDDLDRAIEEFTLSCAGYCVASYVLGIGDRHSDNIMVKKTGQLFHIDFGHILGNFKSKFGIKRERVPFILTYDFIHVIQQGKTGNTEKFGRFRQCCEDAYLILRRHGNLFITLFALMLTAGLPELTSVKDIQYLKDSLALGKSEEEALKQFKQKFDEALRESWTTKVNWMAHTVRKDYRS
PIK3Cδ_h, sequence (O00329 whole entry): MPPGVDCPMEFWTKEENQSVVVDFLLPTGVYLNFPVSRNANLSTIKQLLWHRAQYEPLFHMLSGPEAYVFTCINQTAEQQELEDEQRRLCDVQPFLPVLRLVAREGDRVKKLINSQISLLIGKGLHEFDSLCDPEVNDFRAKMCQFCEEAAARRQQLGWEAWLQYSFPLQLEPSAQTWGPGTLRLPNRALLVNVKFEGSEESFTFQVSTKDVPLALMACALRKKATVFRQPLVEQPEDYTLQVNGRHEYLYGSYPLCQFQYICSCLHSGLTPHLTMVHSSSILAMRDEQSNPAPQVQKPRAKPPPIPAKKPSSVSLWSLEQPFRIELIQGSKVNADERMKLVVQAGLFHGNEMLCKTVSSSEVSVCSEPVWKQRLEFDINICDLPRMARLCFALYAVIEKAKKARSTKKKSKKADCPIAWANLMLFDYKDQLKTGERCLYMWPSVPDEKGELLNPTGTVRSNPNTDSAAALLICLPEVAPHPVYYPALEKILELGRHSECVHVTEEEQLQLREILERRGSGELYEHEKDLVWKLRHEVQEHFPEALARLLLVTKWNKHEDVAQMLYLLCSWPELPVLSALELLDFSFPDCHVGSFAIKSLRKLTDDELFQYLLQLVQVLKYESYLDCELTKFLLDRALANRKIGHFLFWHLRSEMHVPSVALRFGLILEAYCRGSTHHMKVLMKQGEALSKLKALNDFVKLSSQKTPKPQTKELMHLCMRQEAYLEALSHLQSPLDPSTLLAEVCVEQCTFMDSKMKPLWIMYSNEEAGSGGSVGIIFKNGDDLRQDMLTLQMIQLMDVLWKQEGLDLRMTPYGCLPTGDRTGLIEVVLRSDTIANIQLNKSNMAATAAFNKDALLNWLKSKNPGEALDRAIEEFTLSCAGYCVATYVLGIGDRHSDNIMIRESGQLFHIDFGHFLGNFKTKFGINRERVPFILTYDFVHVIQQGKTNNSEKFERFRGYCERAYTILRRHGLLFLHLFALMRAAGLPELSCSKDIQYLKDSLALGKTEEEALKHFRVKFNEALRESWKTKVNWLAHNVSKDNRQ
PIK3Cα_h, sequence (P42336 whole entry): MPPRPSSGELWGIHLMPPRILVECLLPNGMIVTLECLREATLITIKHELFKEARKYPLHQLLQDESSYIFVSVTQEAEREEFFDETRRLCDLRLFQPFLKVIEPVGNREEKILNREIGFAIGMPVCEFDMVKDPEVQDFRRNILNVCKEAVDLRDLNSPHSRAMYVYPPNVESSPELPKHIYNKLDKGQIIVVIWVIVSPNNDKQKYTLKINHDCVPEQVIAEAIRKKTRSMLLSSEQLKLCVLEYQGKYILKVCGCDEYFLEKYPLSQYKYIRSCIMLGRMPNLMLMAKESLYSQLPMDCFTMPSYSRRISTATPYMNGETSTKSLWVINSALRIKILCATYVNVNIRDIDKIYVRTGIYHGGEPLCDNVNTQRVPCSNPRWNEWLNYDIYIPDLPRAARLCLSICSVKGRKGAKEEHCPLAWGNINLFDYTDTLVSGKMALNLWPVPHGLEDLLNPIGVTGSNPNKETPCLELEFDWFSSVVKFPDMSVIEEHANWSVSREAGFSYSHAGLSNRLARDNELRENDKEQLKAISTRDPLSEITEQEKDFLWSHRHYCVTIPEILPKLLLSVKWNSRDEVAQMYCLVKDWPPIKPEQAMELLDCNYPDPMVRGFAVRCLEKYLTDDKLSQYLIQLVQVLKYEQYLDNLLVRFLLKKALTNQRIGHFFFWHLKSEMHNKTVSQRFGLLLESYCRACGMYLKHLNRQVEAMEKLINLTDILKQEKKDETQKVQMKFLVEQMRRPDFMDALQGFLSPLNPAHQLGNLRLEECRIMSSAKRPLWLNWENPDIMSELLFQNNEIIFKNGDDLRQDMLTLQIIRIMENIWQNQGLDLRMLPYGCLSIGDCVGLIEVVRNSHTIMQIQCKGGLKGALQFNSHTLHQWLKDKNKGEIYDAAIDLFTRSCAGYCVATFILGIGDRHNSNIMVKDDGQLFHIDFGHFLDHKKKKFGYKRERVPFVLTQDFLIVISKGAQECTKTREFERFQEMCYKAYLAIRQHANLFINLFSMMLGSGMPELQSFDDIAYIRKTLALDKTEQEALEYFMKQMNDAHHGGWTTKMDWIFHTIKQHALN

For `Cc1nc2c(C(=O)O)cc(N3CCOC(C)C3)nn2c1Cc1cccc(C(F)(F)F)c1C` (stereo not drawn) [Compound 28], the dissociation constant (Kd) is 2.5 nM at PIK3Cβ_h; 21400 nM at MTOR_h; 2090 nM at PIK3Cα_h; 83 nM at PIK3Cδ_h; 5500 nM at PIK3Cγ_h. The results for the IC50 in assay [1] and in assay [2] were 380 nM and about 407 nM, respectively.
For the compound `Cc1c(Cc2c(CO)nc3c(N)cc(N4CCOC(C)C4)nn23)cccc1C(F)(F)F` (stereo not drawn) [Compound 26], the equilibrium dissociation constant (Kd) at PIK3Cβ_h is 331 nM; at MTOR_h, 8510 nM; at PIK3Cα_h it was over 30200 nM; at PIK3Cδ_h, 13800 nM; on PIK3Cγ_h, 11700 nM. The results for the IC50 in assay [1] and in assay [2] were about 309 nM and over 513 nM, respectively.
With `Cc1nc2c(-c3cnc[nH]3)cc(N3CCOCC3)nn2c1Nc1cccc(C(F)(F)F)c1CN1CC(O)C1` [Compound 46], the Kd was found to be 3 nM on PIK3Cβ_h; 1230 nM on MTOR_h; 661 nM at PIK3Cα_h; 11 nM at PIK3Cδ_h; 741 nM on PIK3Cγ_h. For the same compound, the half-inhibitory concentration (IC50) in assay [1] stood at 17 nM; in assay [2] it was 174 nM.
With `Cc1c(Cc2c(C(O)CN)nc3c(N)cc(N4CCOCC4)nn23)cccc1C(F)(F)F` (stereo not drawn) [Compound 91], the Kd at PIK3Cβ_h came out at 1.1 nM; on MTOR_h it was 776 nM; on PIK3Cα_h, 8910 nM; on PIK3Cδ_h, 148 nM; on PIK3Cγ_h it was 8130 nM. The IC50 in assay [1] and in assay [2] was over 513 nM in each case.
Take `Cc1c(Cc2c(CNCCO)nc3c(-c4ncc[nH]4)cc(N4CCOCC4)nn23)cccc1C(F)(F)F` [Compound 4]: the equilibrium dissociation constant (Kd) was 3.3 nM on PIK3Cβ_h; over 3310 nM at MTOR_h; 933 nM at PIK3Cα_h; 74 nM on PIK3Cδ_h; 1150 nM on PIK3Cγ_h. Moreover, the IC50 was about 120 nM in assay [1] and about 135 nM in assay [2].
As to `Cc1nc2c(N)cc(N3CCOCC3)nn2c1Nc1cccc(C(F)(F)F)c1CN1CCC(S(C)(=O)=O)C1` (stereo not drawn) [Compound 47], the Kd was 2.5 nM on PIK3Cβ_h; over 30200 nM on MTOR_h; 10500 nM at PIK3Cα_h; 47 nM on PIK3Cδ_h; 20900 nM at PIK3Cγ_h. For the same compound, the values for the IC50 in assay [1] and in assay [2] were 44 nM and 59 nM, respectively.
On to `Nc1cc(N2CCOCC2)nn2c(Cc3cccc(C(F)(F)F)c3C3CCNCC3)c(CO)nc12` [Compound 104], for which the Kd was 0.7 nM on PIK3Cβ_h; over 30200 nM on MTOR_h; 9330 nM at PIK3Cα_h; 138 nM on PIK3Cδ_h; 15100 nM at PIK3Cγ_h. In addition, the IC50 in assay [1] is 29 nM; in assay [2] it was 78 nM.
For `Cc1nc2c(N)cc(N3CCOCC3)nn2c1Cc1cccc(F)c1CNC(C)CO` (stereo not drawn) [Compound 103], the Kd on PIK3Cβ_h is 74 nM; at MTOR_h it was 24500 nM; at PIK3Cα_h, over 30200 nM; on PIK3Cδ_h, 1000 nM; at PIK3Cγ_h, 31600 nM. Besides, the concentration for half-maximal inhibition (IC50) is over 382 nM in assay [1] and over 423 nM in assay [2].
In the case of `Cc1nc2c(-c3ncc[nH]3)cc(N3CCOCC3)nn2c1Cc1cccc(C(F)(F)F)c1C` [Compound 7], the Kd at PIK3Cβ_h is 15 nM; at MTOR_h, over 10000 nM; at PIK3Cα_h, over 3310 nM; at PIK3Cδ_h it was 525 nM; at PIK3Cγ_h, over 30200 nM. For the same compound, the half-inhibitory concentration (IC50) was 135 nM in assay [1] and 269 nM in assay [2].
